Test results taken from patent US20110245173A1, “Long-Acting GLP-1 Derivatives, and Methods of Treating Cardiac Dysfunction” (priority 2008, published 2011).

Key:
[1] = Pharmacokinetics in plasma after single bolus intravenous administration to rats; parameters: species or system Sprague Dawley rats; settings: rat, in vivo; for AUC(0-inf) / AUC(0-t) / Cmax / clearance / half-life: male, Sprague Dawley
Protocol: GLP-1 (9-36) analogues containing C-terminal extensions (FIG. 2) were tested in 9 week old male Sprague Dawley rats to evaluate biological half-life as well as other pharmacokinetic properties of the analogues. Rats used in the study were acclimated to laboratory conditions for approximately 1 week prior to testing. Polypeptide analogues were prepared as solutions for intravenous administration (bolus injection in the jugular vein) at concentrations of 0.15 mg/mL and 1.5 mg/mL in appropriate buffers. The compounds were then injected while the animals were still under anesthesia. Blood samples were taken form each animal at no more than 5 occasions. Following dose administration, blood samples (0.3 to 0.4 mL) were obtained by jugular venipuncture (lithium heparin was used as an anticoagulant) at selected time points (0, 2.5, 5, 10 and 15 minutes or 30, 45, 60, 120 and 240 minutes). The samples were analyzed for parent drug by LC-MS/MS. Numerical data was subjected to calculation of group mean values, standard deviations and coefficients of variation (expressed as a percent), where appropriate. The pharmacokinetic analysis (non-compartmental) of plasma concentration was performed using the PhAST software program (Version 2.3-004, Pheonix International Life Sciences Inc.). The highest experimental concentration was considered the peak concentration (Cmax; observed value). Whenever possible, the observed terminal phase rate constant (Kel) was calculated from the terminal 3 or more points (non-zero and non-Cmax points) of the log-linear regression. The number of points included in the regression analysis was such as to optimize r^2 value calculated for the regression. Terminal phase half-life (t1/2) was determined by dividing 0.693 by Kel. The area under the plasma concentration of each compound versus time-curve from time zero to the last quantifiable concentration (AUC0-t) was calculated by the linear trapezoidal method (Bailer, A. J., (1988) J. Pharmacokin. Biopharm., 1, 303-309). AUC0-∞, the area under the plasma concentration versus time curve from time zero to infinity, was calculated as the sum of AUC0-t plus the ratio of the last plasma concentration to Kel. Values below the limit of quantification were assigned a value of zero for pharmacokinetic analysis.

[2] = cited from earlier work

AUC(0-inf) ([1]; 0.15 mg/kg): 65.1 ng·h/mL
AUC(0-t) ([1]; 0.15 mg/kg): 63.8 ng·h/mL
Cmax ([1]; 0.15 mg/kg): 1060 ng/mL
clearance ([1]; 0.15 mg/kg): 38.4 mL/min/kg
half-life ([1]; 0.15 mg/kg, T1/2: Terminal phase half-life): 1.64 min
AUC(0-inf) ([1]; 1.5 mg/kg): 679 ng·h/mL
AUC(0-t) ([1]; 1.5 mg/kg): 672 ng·h/mL
Cmax ([1]; 1.5 mg/kg): 10600 ng/mL
clearance ([1]; 1.5 mg/kg): 36.8 mL/min/kg
half-life ([1]; 1.5 mg/kg, T1/2: Terminal phase half-life): 2.22 min
half-life ([1]; 1.5 mg/kg, half-life): 1.6 to 2.2 min
Tmax: Time to Cmax ([1]; 0.15 mg/kg): 2.50 min
Tmax: Time to Cmax ([1]; 1.5 mg/kg): 2.50 min
Structure (SMILES): CC[C@H](C)[C@H](NC(=O)[C@H](Cc1ccccc1)NC(=O)[C@H](CCC(=O)O)NC(=O)[C@H](CCCCN)NC(=O)[C@H](C)NC(=O)[C@H](C)NC(=O)[C@H](CCC(N)=O)NC(=O)CNC(=O)[C@H](CCC(=O)O)NC(=O)[C@H](CC(C)C)NC(=O)[C@H](Cc1ccc(O)cc1)NC(=O)[C@H](CO)NC(=O)[C@H](CO)NC(=O)[C@@H](NC(=O)[C@H](CC(=O)O)NC(=O)[C@H](CO)NC(=O)[C@@H](NC(=O)[C@H](Cc1ccccc1)NC(=O)[C@@H](NC(=O)CNC(=O)[C@@H](N)CCC(=O)O)[C@@H](C)O)[C@@H](C)O)C(C)C)C(=O)N[C@@H](C)C(=O)N[C@@H](Cc1c[nH]c2ccccc12)C(=O)N[C@@H](CC(C)C)C(=O)N[C@H](C(=O)N[C@@H](CCCCN)C(=O)NCC(=O)N[C@@H](CCCNC(=N)N)C(N)=O)C(C)C [DGS70]
half-life in vivo [2]: 2 to 4 min
